This note sets out measurements from patent US20150376570A1, “METHODS AND COMPOSITIONS FOR PRODUCING INDUCED HEPATOCYTES” (GENENTECH, INC., priority 2012, published 2015).

One data set concerns BJ fibroblasts. Nature of the data set: Albumin and α-fetoprotein gene expression by qPCR in transfected fibroblasts. It counts as cell-based, human. To be noted: Example 13, 5 consecutive days, 6-well plate. The text has this:
RPL19 (Hs02338565_gH) was used for endogenous control assays. The ViiA 7 Real Time PCR System (Applied Biosystems) was used to perform and analyze qPCRs. If gene expression was not detectable in a sample, an artificial cycle threshold of 41 was applied to allow for comparison.
Reprogramming experiments were generally performed as follows. Initial reprogramming experiments used mRNA pools containing six different mRNAs encoding the following six transcription factors: FOXA1, FOXA2, FOXA3, HNF4A, HNF1A, and GATA4. This six transcription factor pool containing mRNAs encoding FOXA1, FOXA2, FOXA3, HNF4A, HNF1A, and GATA4 is herein referred to as 6TF. The 6TF mRNA mixture used in these studies contained the mRNA molecules at a molar ratio of 1:1:1:1:1:1. […]
Albumin (ALB) and α-fetoprotein (AFP) are genes expressed almost exclusively in cells of hepatocyte lineage. […] After 5 days and 9 days, gene expression levels for albumin and α-fetoprotein in the cells were determined by qPCR using methods as described above.
BJ fibroblasts were transfected once daily with 6TF mRNA mixture (See Table 6 above for 6TF mRNA cocktail composition) or each of the 5TF mRNA mixtures (described above and shown in Table 6) for 5 consecutive days, as described above. After 5 days, gene expression levels for albumin and AFP in the cells were determined by qPCR using methods as described above. […]

In another data set the test system is TLR3. Nature of the data set: TLR3 activation on 11TF transfection with or without Poly I:C. It counts as cell-based, human. The settings on record: daily transfection and/or daily Poly I:C supplementation. As for the experimental part:
(See Lee et al., (2012) Cell 151:547-558.) Experiments were performed to examine whether 11TF mRNA mixture could activate TLR3 and to determine whether further activation would increase hepatic induction.
Experiments were performed to test whether daily supplementation with Poly I:C, a known TLR3 agonist, accompanying 11TF mRNA mixture transfection would further increase expression of albumin and AFP.

In the case of HNF1A: mRNA encoding only HNF1A, in the data set with BJ fibroblasts, the “AFP gene expression vs non-transfected control fibroblasts” value is reported as “slightly above” and the “albumin gene expression vs non-transfected control fibroblasts” value is on record as “slightly above”.

Poly I:C: the “TLR3 expression above control” value in the data set with TLR3 is given as “did not activate TLR3”.
